Consider 12 compounds from patent publication US8802866B2, “Pyridinylimidazolone derivatives for the inhibition of PI3 kinases” (Merck Patent GmbH, priority 2009, dated 2014).

Where only a bound is given, the exact number is not on record here.

Data set [1] concerns the target PI3Kalpha (Homo sapiens, UniProt P42336). The data set can be described thus: Biochemical PI3Kalpha assay (neomycin SPA, lipid phosphorylation). Particulars: human recombinant GST-PI3K. The gist of the method:
(§1)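 Recombinant PI3K incubated with lipid substrate and radioactive ATP for 120 min at room temperature with gentle stirring, then stopped with neomycin-coated PVT-SPA beads, ATP 60 mM and EDTA 6.2 mM in PBS. After 60 min bead binding and centrifugation, radioactive Ptdlns(3)P counted by scintillation.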

The target of data set [2] is PI3Kbeta (Homo sapiens, UniProt P42338). Kind of data set: Biochemical PI3Kbeta assay (neomycin SPA, lipid phosphorylation). To be noted: human recombinant GST-PI3K. The essentials:
as §1

The target of data set [3] is recombinant PI3Kalpha (shortened form of the catalytic subunit) (Homo sapiens, UniProt P42336). The data set can be described thus: BIACORE PI3K binding assay (SPR). To be noted: 25° C. The gist of the method:
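Contact time was 180 s and dissociation 240 s, in HEPES pH 7.40 buffer with 2% DMSO. Solvent-corrected, double-referenced data were fitted to a 1:1 model with mass transport.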

The subject of data set [4] is PI3K-dependent phosphorylation of PKB at Serin 473 in PC3 cells. Kind of data set: Cellular PI3K assay (P-S473-PKB Luminex assay in PC3 cells). It is filed as cell-based. To be noted: Homo sapiens, PC-3, 0.5 h; PC3 cells, 30 min, serum-free, P-S473-PKB; read-out: IC50 (cell). The gist of the method:
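PC3 cells were exposed for 30 min under serum-free conditions to 7 concentrations of compound, then lysed. Lysates were captured overnight at 4°C on anti-total-PKB Luminex beads and detected with P-S473-PKB antibody plus PE-labelled secondary.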

The target in data set [5] is DNA-PK protein complex (Homo sapiens, UniProt P78527). Kind of data set: Biochemical DNA-PK assay (FlashPlate). The essentials:
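Streptavidin-coated FlashPlate radiometric kinase assay, stopped with 200 mM EDTA, then wells washed with 0.9% NaCl and bound radioactivity counted. Blank (non-specific reaction) defined with a proprietary kinase inhibitor at 10 μM.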

In data set [6] the target is T1, mTOR (Homo sapiens, UniProt P42345).
T1 construct: purchased Millipore 14-770
Kind of data set: Biochemical mTOR assay (Millipore mTOR assay kit). The method, then:
The biochemical mTOR assay was carried out by the method described in the Millipore mTOR assay kit (catalogue number 14-770).

The target in data set [7] is CK2 protein kinase. To be noted: cited from earlier work.

Sequence of recombinant PI3Kalpha (shortened form of the catalytic subunit) (P42336 151-1068 limits assumed): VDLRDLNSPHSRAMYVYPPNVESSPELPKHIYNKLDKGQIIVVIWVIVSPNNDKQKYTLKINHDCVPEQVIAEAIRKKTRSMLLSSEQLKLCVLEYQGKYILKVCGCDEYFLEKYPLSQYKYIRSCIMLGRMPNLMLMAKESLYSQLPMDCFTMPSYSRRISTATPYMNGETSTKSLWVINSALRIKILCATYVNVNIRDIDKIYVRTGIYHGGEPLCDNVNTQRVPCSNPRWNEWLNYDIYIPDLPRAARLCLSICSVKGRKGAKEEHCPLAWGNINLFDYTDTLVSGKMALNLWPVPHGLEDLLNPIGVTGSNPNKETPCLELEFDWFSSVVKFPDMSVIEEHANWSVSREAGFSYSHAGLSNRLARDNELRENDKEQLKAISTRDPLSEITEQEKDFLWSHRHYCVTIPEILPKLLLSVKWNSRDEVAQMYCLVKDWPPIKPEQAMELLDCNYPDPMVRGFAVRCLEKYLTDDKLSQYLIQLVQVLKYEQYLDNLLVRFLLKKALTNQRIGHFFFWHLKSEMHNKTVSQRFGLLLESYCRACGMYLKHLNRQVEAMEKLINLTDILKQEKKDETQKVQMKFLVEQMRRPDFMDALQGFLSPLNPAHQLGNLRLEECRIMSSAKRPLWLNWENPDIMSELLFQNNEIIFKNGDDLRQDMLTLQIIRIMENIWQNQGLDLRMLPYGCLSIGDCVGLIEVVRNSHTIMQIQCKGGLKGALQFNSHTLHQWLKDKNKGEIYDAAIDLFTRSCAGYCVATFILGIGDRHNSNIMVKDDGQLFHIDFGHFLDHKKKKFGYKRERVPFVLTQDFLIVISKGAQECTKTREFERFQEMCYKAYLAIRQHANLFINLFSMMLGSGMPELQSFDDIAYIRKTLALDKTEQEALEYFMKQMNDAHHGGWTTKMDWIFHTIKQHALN
Sequence of PI3Kalpha (P42336 whole entry): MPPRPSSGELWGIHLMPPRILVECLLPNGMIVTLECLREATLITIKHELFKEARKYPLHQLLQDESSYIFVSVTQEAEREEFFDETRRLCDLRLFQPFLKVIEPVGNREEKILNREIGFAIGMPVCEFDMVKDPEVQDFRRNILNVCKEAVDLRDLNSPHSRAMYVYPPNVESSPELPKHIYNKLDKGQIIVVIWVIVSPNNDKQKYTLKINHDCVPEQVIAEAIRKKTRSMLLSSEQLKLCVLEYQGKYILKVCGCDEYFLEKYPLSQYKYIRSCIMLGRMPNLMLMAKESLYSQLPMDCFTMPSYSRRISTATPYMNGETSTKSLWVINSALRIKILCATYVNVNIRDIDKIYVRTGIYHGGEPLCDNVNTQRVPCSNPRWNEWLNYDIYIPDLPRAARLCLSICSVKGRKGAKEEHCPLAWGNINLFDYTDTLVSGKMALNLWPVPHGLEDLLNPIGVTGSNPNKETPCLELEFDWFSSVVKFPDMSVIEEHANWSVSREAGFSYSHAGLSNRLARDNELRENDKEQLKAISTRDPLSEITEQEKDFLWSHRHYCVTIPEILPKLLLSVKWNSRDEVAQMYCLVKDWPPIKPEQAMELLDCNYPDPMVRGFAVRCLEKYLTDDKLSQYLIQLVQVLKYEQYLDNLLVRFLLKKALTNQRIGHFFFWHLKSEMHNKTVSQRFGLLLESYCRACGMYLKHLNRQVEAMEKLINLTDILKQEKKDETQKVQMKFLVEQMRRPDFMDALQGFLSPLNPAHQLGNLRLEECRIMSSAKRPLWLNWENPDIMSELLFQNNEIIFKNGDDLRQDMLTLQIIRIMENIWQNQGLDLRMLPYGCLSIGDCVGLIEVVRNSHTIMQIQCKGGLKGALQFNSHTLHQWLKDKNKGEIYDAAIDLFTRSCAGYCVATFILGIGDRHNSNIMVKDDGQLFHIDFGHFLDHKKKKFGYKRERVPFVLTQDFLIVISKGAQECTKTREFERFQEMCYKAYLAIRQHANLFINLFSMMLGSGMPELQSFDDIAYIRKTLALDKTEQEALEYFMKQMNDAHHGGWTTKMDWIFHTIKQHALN
Sequence of PI3Kalpha (P27986 whole entry partner): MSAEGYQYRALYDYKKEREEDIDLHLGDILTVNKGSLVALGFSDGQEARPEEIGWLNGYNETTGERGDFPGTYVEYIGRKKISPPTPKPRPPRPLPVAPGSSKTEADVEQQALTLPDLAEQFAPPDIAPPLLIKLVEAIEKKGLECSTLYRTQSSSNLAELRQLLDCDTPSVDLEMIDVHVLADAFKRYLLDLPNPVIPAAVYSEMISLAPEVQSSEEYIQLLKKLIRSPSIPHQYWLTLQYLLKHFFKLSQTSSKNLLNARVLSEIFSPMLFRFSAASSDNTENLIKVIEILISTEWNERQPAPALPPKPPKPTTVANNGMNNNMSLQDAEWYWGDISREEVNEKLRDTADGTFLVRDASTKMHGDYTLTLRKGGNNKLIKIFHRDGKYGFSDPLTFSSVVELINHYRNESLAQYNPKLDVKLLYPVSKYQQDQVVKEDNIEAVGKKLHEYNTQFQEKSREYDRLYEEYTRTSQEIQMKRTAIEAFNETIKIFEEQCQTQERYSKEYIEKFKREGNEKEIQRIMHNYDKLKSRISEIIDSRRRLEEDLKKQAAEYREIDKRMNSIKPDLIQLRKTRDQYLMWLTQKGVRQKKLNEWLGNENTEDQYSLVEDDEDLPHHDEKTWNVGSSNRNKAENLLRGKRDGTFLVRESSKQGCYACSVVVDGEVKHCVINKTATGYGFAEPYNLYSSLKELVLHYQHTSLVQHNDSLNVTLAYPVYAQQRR
T1 sequence (P42345 1362-2549 limits assumed): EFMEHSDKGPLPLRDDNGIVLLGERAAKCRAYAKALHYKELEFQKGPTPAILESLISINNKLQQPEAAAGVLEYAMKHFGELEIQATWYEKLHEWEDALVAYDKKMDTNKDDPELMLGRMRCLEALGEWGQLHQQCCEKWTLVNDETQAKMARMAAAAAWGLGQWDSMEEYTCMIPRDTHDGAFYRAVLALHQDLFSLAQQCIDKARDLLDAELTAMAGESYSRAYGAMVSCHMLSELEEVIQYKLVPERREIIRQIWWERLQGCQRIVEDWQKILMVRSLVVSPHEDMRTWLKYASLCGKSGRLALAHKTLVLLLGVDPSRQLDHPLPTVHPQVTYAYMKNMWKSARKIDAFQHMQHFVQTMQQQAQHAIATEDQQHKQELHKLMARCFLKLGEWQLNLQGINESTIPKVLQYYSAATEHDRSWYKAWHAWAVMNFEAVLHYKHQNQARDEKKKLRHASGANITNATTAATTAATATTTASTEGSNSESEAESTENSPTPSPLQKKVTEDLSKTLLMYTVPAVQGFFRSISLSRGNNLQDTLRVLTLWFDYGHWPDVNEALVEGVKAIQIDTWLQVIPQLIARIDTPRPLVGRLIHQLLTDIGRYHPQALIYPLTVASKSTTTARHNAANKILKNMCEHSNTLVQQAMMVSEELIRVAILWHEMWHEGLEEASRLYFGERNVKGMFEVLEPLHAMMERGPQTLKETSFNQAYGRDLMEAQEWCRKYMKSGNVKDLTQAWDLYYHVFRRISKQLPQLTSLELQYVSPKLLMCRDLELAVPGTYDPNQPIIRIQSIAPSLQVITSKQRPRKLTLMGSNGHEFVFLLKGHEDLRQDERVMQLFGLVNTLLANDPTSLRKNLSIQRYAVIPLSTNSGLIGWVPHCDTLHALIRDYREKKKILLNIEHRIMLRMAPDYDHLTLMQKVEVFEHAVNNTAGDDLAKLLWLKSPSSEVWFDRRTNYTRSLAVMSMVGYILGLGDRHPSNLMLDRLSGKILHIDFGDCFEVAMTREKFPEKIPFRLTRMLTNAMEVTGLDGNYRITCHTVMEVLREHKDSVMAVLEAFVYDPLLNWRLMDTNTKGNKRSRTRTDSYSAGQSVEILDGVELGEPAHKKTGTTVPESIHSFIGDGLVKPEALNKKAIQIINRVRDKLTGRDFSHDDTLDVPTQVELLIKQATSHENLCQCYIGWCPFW
Sequence of PI3Kbeta (P42338 whole entry): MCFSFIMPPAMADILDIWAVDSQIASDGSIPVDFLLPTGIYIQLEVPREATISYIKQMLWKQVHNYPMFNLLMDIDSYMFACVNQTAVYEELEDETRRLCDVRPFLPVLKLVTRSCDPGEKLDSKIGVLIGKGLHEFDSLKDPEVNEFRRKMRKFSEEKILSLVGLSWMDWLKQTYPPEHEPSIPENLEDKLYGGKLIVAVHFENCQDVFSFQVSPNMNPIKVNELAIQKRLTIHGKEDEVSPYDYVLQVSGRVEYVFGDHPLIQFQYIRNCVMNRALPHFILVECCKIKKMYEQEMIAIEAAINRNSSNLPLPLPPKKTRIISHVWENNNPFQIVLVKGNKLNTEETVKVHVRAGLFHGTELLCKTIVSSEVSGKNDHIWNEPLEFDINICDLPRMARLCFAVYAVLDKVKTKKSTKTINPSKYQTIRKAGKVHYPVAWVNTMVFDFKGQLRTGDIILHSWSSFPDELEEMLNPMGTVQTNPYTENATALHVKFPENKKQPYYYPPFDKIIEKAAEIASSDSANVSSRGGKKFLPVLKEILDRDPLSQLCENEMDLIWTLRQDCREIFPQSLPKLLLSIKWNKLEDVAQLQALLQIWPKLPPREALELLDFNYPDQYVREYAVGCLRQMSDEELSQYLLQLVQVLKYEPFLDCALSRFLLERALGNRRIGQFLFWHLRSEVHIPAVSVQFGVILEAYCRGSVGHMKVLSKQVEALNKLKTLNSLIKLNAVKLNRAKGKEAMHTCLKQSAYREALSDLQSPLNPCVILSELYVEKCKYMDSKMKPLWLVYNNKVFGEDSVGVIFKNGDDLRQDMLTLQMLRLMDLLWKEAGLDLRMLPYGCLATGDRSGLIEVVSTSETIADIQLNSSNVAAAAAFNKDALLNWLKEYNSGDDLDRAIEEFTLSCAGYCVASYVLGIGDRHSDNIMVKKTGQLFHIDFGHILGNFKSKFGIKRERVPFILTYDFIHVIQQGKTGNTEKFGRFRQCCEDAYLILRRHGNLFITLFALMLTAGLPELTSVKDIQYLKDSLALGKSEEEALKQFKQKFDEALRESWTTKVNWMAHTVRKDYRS
Sequence of PI3Kbeta (P27986 whole entry partner): as the sequence (P27986 whole entry partner) above

As a reminder, the IC50 is the concentration at which inhibition is half-maximal. Broadly, the Kd is the free concentration of one partner at which half of the binding sites on the other are occupied at equilibrium, for simple one-to-one binding. What is called melting point is the temperature of the solid-liquid transition. Consider `Cn1cc(-c2cc(-c3cnc4ccccc4c3)ccn2)n(-c2ccc(C(C)(C)C(N)=O)cc2)c1=O` [Example A21, 2-{-4-[3-Methyl-2-oxo-5-(4-quinolin-3-ylpyridin-2-yl)-2,3-dihydroimidazol-1-yl]-phenyl}isobutyramide], for which the melting point came out at 259 °C. For the same compound, the IC50 in data set [1] is 100 to 10000 nM. For the same compound, the IC50 in data set [2] lay in the range of 100 to 10000 nM. In data set [3], the Kd lay in the range of 0.1 to 100 nM. The IC50 in data set [4] is over 10000 nM. This compound returned an IC50 in data set [5] of 0.1 to 100 nM. In data set [6], the IC50 is 100 to 10000 nM.

Compound `Cn1cc(-c2cc(-c3ccsc3)ccn2)n(-c2ccc(C(C)(C)C#N)cc2)c1=O` [Example A26, 2-Methyl-2-{4-[3-methyl-2-oxo-5-(4-thiophen-3-ylpyridin-2-yl)-2,3-dihydro-imidazol-1-yl]phenyl}propionitrile] came in with a melting point of 209 °C. Also, the IC50 in data set [1] is 100 to 10000 nM. Besides, the IC50 in data set [2] is over 10000 nM. In addition, in data set [3], the Kd is 100 to 10000 nM. Also, in data set [4], the IC50 was over 10000 nM. This compound also came in with a half-maximal inhibitory concentration (IC50) in data set [5] of 0.1 to 100 nM. The IC50 in data set [6] is 100 to 10000 nM.

Regarding `N#CCc1ccc(-n2c(-c3cc(-c4cnc5[nH]ccc5c4)ccn3)c[nH]c2=O)cc1` [Example A31, (4-{2-oxo-5-[4-(1H-pyrrolo[2,3-b]pyridin-5-yl)pyridin-2-yl]-2,3-dihydroimidazol-1-yl}phenyl)acetonitrile], the melting point was > 410 °C (dec.). For the same compound, in data set [1], the IC50 is 100 to 10000 nM. For the same compound, the IC50 in data set [2] fell in the range of 100 to 10000 nM. The Kd in data set [3] was in the range of 0.1 to 100 nM. Also, the IC50 in data set [4] lay within 100 to 10000 nM. Moreover, the IC50 in data set [5] lay in the range of 0.1 to 100 nM. In data set [6], this compound came in with a half-maximal inhibitory concentration (IC50) of 100 to 10000 nM.

For `Cn1cc(-c2cc(-c3cnc4[nH]ccc4c3)ccn2)n(-c2ccc(CC#N)cc2)c1=O` [Example A32, (4-{3-Methyl-2-oxo-5-[4-(1H-pyrrolo[2,3-b]pyridin-5-yl)pyridin-2-yl]-2,3-dihydroimidazol-1-yl}phenyl)acetonitrile], the melting point was 252 °C. Also, the IC50 in data set [1] lay in the range of 0.1 to 100 nM. Besides, the half-inhibitory concentration (IC50) in data set [2] lay within 100 to 10000 nM. Besides, in data set [3], the Kd fell in the range of 0.1 to 100 nM. The IC50 in data set [4] was in the range of 100 to 10000 nM. In data set [5], this compound displayed an IC50 of 0.1 to 100 nM. In data set [6], this compound returned an IC50 of 0.1 to 100 nM.

`CCOC(=O)C(C)(C)c1ccc(-n2c(-c3cc(-c4cnc5ccccc5c4)ccn3)cn(C)c2=O)cc1` [Example A36, Ethyl 2-methyl-2-{4-[3-methyl-2-oxo-5-(4-quinolin-3-ylpyridin-2-yl)-2,3-dihydro-imidazol-1-yl]phenyl}propionate] came in with a melting point of 158 °C. Moreover, in data set [1], the IC50 was 100 to 10000 nM. In addition, the IC50 in data set [2] is over 10000 nM. The Kd in data set [3] was 100 to 10000 nM. Besides, in data set [4], the IC50 was over 10000 nM. The compound further had an IC50 in data set [5] of 0.1 to 100 nM. This compound also came in with an IC50 in data set [6] of 100 to 10000 nM.

Regarding `Cn1cc(-c2cc(-c3cnc4[nH]ncc4c3)ccn2)n(-c2ccc(C(C)(C)C#N)cc2)c1=O` [Example A41, 2-Methyl-2-(4-{3-methyl-2-oxo-5-[4-(1H-pyrazolo[3,4-b]pyridin-5-yl)pyridin-2-yl]-2,3-dihydroimidazol-1-yl}phenyl)propionitrile], the melting point was 294 °C. Moreover, in data set [1], the IC50 fell in the range of 0.1 to 100 nM. In addition, in data set [2], the IC50 lay within 100 to 10000 nM. In data set [3], the Kd is 0.1 to 100 nM. Also, the IC50 in data set [4] fell in the range of 100 to 10000 nM. Moreover, the IC50 in data set [5] was 0.1 to 100 nM. This compound returned an IC50 in data set [6] of 100 to 10000 nM.

With `Cn1cc(-c2cc(-c3cnc4c(c3)CCN4)ccn2)n(-c2ccc(C(C)(C)C#N)cc2)c1=O` [Example A43, 2-(4-{5-[4-(2,3-Dihydro-1H-pyrrolo[2,3-b]pyridin-5-yl)pyridin-2-yl]-3-methyl-2-oxo-2,3-dihydroimidazol-1-yl}phenyl)-2-methylpropionitrile], the melting point worked out at 247 °C. Also, the IC50 in data set [1] lay within 0.1 to 100 nM. Also, in data set [2], the IC50 lay within 100 to 10000 nM. For the same compound, the Kd in data set [3] is 0.1 to 100 nM. In data set [4], the IC50 fell in the range of 100 to 10000 nM. The IC50 in data set [5] lay in the range of 0.1 to 100 nM. The compound further came in with an IC50 in data set [6] of 100 to 10000 nM.

Regarding `Cn1cc(-c2cc(-c3cnc4c(c3)CC(=O)N4)ccn2)n(-c2ccc(C(C)(C)C#N)cc2)c1=O` [Example A44, 2-Methyl-2-(4-{3-methyl-2-oxo-5-[4-(2-oxo-2,3-dihydro-1H-pyrrolo[2,3-b]pyridin-5-yl)pyridin-2-yl]-2,3-dihydroimidazol-1-yl}phenyl)propionitrile], the melting point was determined as 263 °C. Besides, in data set [1], the IC50 was 100 to 10000 nM. Further, the 50% inhibitory concentration (IC50) in data set [2] lay in the range of 100 to 10000 nM. Further, the Kd in data set [3] fell in the range of 0.1 to 100 nM. In data set [4], the IC50 was in the range of 100 to 10000 nM. Besides, the IC50 in data set [5] lay in the range of 0.1 to 100 nM. The IC50 in data set [6] is 100 to 10000 nM.

The compound `CN1CCN(c2ccc(-n3c(-c4cc(-c5cnc6[nH]ccc6c5)ccn4)cn(C)c3=O)cc2C(F)(F)F)CC1` [Example A49, 1-Methyl-3-[4-(4-methylpiperazin-1-yl)-3-trifluoromethylphenyl]-4-[4-(1H-pyrrolo[2,3-b]pyridin-5-yl)pyridin-2-yl]-1,3-dihydroimidazol-2-one] yielded a melting point of 241 °C. In addition, the IC50 in data set [1] was 100 to 10000 nM. Moreover, in data set [2], the IC50 fell in the range of 100 to 10000 nM. Besides, the Kd in data set [3] lay within 0.1 to 100 nM. In data set [4], the IC50 is 100 to 10000 nM. Besides, the IC50 in data set [5] lay within 0.1 to 100 nM. Besides, the IC50 in data set [6] fell in the range of 100 to 10000 nM.

`Cn1cc(-c2cc(-c3ccc4[nH]ncc4c3)ccn2)n(-c2ccc(C(C)(C)C#N)cc2)c1=O` [Example A52, 2-(4-{5-[4-(1H-Indazol-5-yl)pyridin-2-yl]-3-methyl-2-oxo-2,3-dihydroimidazol-1-yl}phenyl)-2-methylpropionitrile] yielded a melting point of 165 °C. Moreover, the IC50 in data set [1] is 100 to 10000 nM. Besides, the IC50 in data set [2] was in the range of 100 to 10000 nM. In addition, the Kd in data set [3] fell in the range of 0.1 to 100 nM. Besides, the IC50 in data set [4] lay in the range of 100 to 10000 nM. The compound also yielded an IC50 in data set [5] of 0.1 to 100 nM. Further, the IC50 in data set [6] was 100 to 10000 nM.

`Cn1cc(-c2cc(-c3cnc4[nH]ccc4c3)ccn2)n(-c2cccc(C#N)c2)c1=O` [Example A55, 3-{3-Methyl-2-oxo-5-[4-(1H-pyrrolo[2,3-b]pyridin-5-yl)pyridin-2-yl]-2,3-dihydro-imidazol-1-yl}benzonitrile] had a melting point of 265 °C. In data set [1], the 50% inhibitory concentration (IC50) fell in the range of 100 to 10000 nM. The IC50 in data set [2] lay within 100 to 10000 nM. Also, the Kd in data set [3] fell in the range of 100 to 10000 nM. Also, in data set [4], the IC50 fell in the range of 100 to 10000 nM. In data set [5], the IC50 was in the range of 0.1 to 100 nM. The compound further displayed an IC50 in data set [6] of 100 to 10000 nM.

With `O=c1cc(N2CCOCC2)oc2c(-c3ccccc3)cccc12` [LY294002], in data set [7], the IC50 was 5000 to 10000 nM.
